Test results taken from patent EP0741749B1, “MERCURY BINDING POLYPEPTIDES AND N[…] THEREFOR” (priority 1994, dated 1995).

Test system: binding of antibody secreted by hybridoma designated as 1F10 to immobilized glutathione-mercuric ion
Assay: Competitive inhibition ELISA: inhibition of antibody binding by metal ions
Details: culture fluid of 1F10; at the highest concentration (final range 10^-1 M to 10^-6 M); 100000 µM
Protocol: Various methods were used to confirm that the antibodies secreted by hybridomas 4A10 and 1F10 were specific to mercuric ions. If the antibody being secreted by these hybridomas were specific, it should be possible to inhibit binding of the antibody to glutathione-mercuric ions by incubation in the presence of various concentrations of mercuric chloride. This competitive inhibition assay was conducted with antibody-containing culture fluids from the parental hybridomas 4A10 and 1F10.
Metal ions at the indicated concentrations were incubated with culture fluid from the monoclonal antibody in an enzyme-linked immunosorbent assay ("ELISA") plate. The absorbance at 405 nm was determined for each sample, and the percent inhibition of each metal ion concentration was determined by the following formula: Percent inhibition=(A405 of inhibitor - A405 of neg. control)/(A405 of pos. control - A405 of neg. control) [formula]
Various other metals were assayed for inhibition of binding of the monoclonal antibodies to mercuric ion. […] The absorbance at 405 nm was determined for each sample, and the percent inhibition of each metal ion concentration was determined by the same formula used for Figure 1. […]
The negative control measured the binding of a dinitrophenol specific antibody to the antigen mentioned above in the presence of the corresponding metal ions. […]

[Cl-].[Cl-].[Mg+2] [magnesium chloride]
Percent inhibition: ~50%
